Measured values as given in patent publication US9044520B2, “Compound accumulating in inflammatory site, diagnostic agent containing the compound in labeled state and its precursor compound for labeling” (Nihon Medi-Physics Co., Ltd., priority 2011, dated 2015).
Non-standard residues stand in square brackets, D forms with d. Residues, ends and D or L forms follow the SMILES beside them. *: point of attachment. Benzoyl(4-F) = O=C(c1ccc(F)cc1)*; Nle = CCCC[C@H](N)C(=O)O; For = O=C*

Molecular target: T1, formylated peptide receptor (FPR) (Homo sapiens, UniProt P21462)
T1 sequence (P21462 1-350): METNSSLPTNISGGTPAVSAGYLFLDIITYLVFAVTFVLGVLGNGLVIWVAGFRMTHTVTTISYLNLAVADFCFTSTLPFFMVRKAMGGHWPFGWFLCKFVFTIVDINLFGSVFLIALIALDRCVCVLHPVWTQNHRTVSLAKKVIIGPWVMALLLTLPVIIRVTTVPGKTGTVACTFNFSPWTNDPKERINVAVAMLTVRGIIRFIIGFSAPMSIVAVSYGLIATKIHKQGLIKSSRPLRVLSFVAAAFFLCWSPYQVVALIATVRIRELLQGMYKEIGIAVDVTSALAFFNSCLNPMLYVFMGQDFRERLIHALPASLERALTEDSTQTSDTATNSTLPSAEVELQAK
Test: Binding assay/inhibition assay: binding affinity for formylated peptide receptor (FPR), displacement of [125I] Trp-Lys-Tyr-Met-Val-DMet
Conditions: read-out: Ki (Mean value ± SD)
Description: Each peptide having a different concentration (DMSO solution, 10 μL), 2 nmol/L [^125I] Trp-Lys-Tyr-Met-Val-DMet (10 μL) as radioligand, and FPR (10 μL) were added to a binding buffer (170 μL) and incubated at 25° C. for 1 hour, followed by collection by filtration (cell harvesters) using a GF/C filter coated with a polylysine buffer. After washing, radioactivity left on the filter was measured using a γ counter. [^125I] Trp-Lys-Tyr-Met-Val-DMet means a positive control having affinity for FPR and was obtained from PerkinElmer Co., Ltd. for use.
*Binding buffer: 50 mmol/L Hepes, pH 7.4, 5 mmol/L MgCl2, 1 mmol/L CaCl2, 0.2% BSA
Wash buffer: 50 mmol/L Hepes, pH 7.4, 500 mmol/L NaCl, 0.1% BSA
Polylysine buffer: Poly-L-lysine hydrobromate 100 mg/wash buffer 100 mL
Ki values in the table were calculated using the following equation (1).
IC50: Calculation from Graph Pad
[L]: Concentration of Radioligand (Adjusted to 0.2 nM)

Ki [nM]	SMILES
0.46 ± 0.07	CCCC[C@H](NC(=O)[C@H](Cc1ccccc1)NC(=O)[C@H](CC(C)C)NC(=O)[C@H](CCSC)NC=O)C(=O)N[C@@H](Cc1ccc(O)cc1)C(=O)N[C@H](CCCCN)C(=O)N[C@H](CCCCNC(=O)c1ccc(F)cc1)C(N)=O [Peptide 3, formyl-Met-Leu-Phe-Nle-Tyr-DLys-DLys-ε([^19F]FB)-NH2] (For-MLF[Nle]Y[dK][dK](Benzoyl(4-F))-NH2)
0.04 ± 0.04	CCCC[C@H](NC(=O)[C@H](Cc1ccccc1)NC(=O)[C@H](CC(C)C)NC(=O)[C@H](CCSC)NC=O)C(=O)N[C@@H](Cc1ccc(O)cc1)C(=O)N[C@H](CCCCNC(=O)c1ccc(F)cc1)C(N)=O [Peptide 1, formyl-Met-Leu-Phe-Nle-Tyr-DLys-ε([^19F]FB)-NH2] (For-MLF[Nle]Y[dK](Benzoyl(4-F))-NH2)
21.9 ± 12.7	CCCC[C@H](NC=O)C(=O)N[C@@H](CC(C)C)C(=O)N[C@@H](Cc1ccccc1)C(=O)N[C@@H](CCCC)C(=O)N[C@@H](Cc1ccc(O)cc1)C(=O)N[C@H](CCCCN)C(=O)N[C@H](CCCCN)C(=O)N[C@H](CCCCNC(=O)c1ccc(F)cc1)C(N)=O [Peptide 6, formyl-Nle-Leu-Phe-Nle-Tyr-DLys-DLys-DLys-ε([^19F]FB)-NH2, reference compound] (For-[Nle]LF[Nle]Y[dK][dK][dK](Benzoyl(4-F))-NH2)
1.22 ± 0.4	CCCC[C@H](NC=O)C(=O)N[C@@H](CC(C)C)C(=O)N[C@@H](Cc1ccccc1)C(=O)N[C@@H](CCCC)C(=O)N[C@@H](Cc1ccc(O)cc1)C(=O)N[C@H](CCCCN)C(=O)N[C@H](CCCCNC(=O)c1ccc(F)cc1)C(N)=O [Peptide 4, formyl-Nle-Leu-Phe-Nle-Tyr-DLys-DLys-ε([^19F]FB)-NH2] (For-[Nle]LF[Nle]Y[dK][dK](Benzoyl(4-F))-NH2)
0.63 ± 0.14	CCCC[C@H](NC(=O)[C@H](Cc1ccccc1)NC(=O)[C@H](CC(C)C)NC(=O)[C@H](CCSC)NC=O)C(=O)N[C@@H](Cc1ccc(O)cc1)C(=O)N[C@H](CCCCNC(=O)c1ccc(F)cc1)C(=O)N[C@H](CCCCN)C(N)=O [Peptide 5, formyl-Met-Leu-Phe-Nle-Tyr-DLys-ε([^19F]FB)-DLys-NH2] (For-MLF[Nle]Y[dK](Benzoyl(4-F))[dK]-NH2)
0.4 ± 0.36	CCCC[C@H](NC=O)C(=O)N[C@@H](CC(C)C)C(=O)N[C@@H](Cc1ccccc1)C(=O)N[C@@H](CCCC)C(=O)N[C@@H](Cc1ccc(O)cc1)C(=O)N[C@H](CCCCNC(=O)c1ccc(F)cc1)C(N)=O [Peptide 2, formyl-Nle-Leu-Phe-Nle-Tyr-DLys-ε([^19F]FB)-NH2] (For-[Nle]LF[Nle]Y[dK](Benzoyl(4-F))-NH2)
